This is an account of results in patent US10835623B2, “Manganese-based chelate conjugates for molecular MR imaging” (The General Hospital Corporation, priority 2015, dated 2020).

The conditions of series [1]: read-out: Kd for HA; cited from earlier work.
The nature of series [2]: Relaxivity in PBS / Tris buffer / water (Bruker mq60 Minispec). It is filed as physicochemical. The conditions noted are these: 1.41 T, 37° C. The procedure: (§1) NMR spectra were recorded on a 500 MHz Varian spectrometer at 25° C. unless otherwise noted. Chemical shifts are reported in δ (ppm). For ^1H and ^13C NMR spectra, the residual solvent peaks were used as internal reference except for ^13C NMR recorded in D2O where dioxane was used as the internal references (Fulmer, Organometallics 2010, 29, 2176.).^1 Relaxivity measurements were performed on a Bruker mq60 Minispec, 1.41 T and 37° C. Longitudinal (T1) relaxation was acquired via an inversion recovery experiment using 10 inversion times of duration ranging between 0.05×T1 and 5×T1; tranverse […] relaxation was measured using a […] spin-echo experiment. Relaxivity (r1,2) was determined from the slope of a plot of 1/T1,2 vs. [Mn] for at least 4 concentrations. The transverse (T2) relaxation times of ^17O were acquired at 11.7 T from the full-width at half-height of the H2^17O signal (Gale, Carvan, J. Am. Chem. Soc. 2013, 135, 18600). ^17O T2 relaxivity (r2^O) was calculated by dividing the Mn-imparted increase in 1/T2 relative to neat H2O (pH 3) by the Mn concentration in mM. 0.7-1.0 mL NMR samples were enriched with a 10 μL of 18% H2^17O.

Series [3] concerns plasma proteins such as serum albumin. The experiment in a line: Relaxivity in human blood plasma. It is filed as physicochemical. The conditions noted are these: 1.41 T, 37° C. On the procedure: as §1
Incorporation of lipophilic functionality into the chelate-metal complexes promotes binding to plasma proteins such as serum albumin. This binding provides a change in relaxivity measured in human blood plasma compared to that measured in PBS. In most cases, a large (40-170%) increase in relaxivity (r1 or r2) is observed (Table 1).

What is called Kd is the constant that tells how readily two partners part at equilibrium. With GAHWQFNALTVR, the dissociation constant (Kd) in series [1] was about 1000 nM.

As to “Na[Mn(PyC3A-3-ethyl ester)] [Compound 10]”, the “r1 in PBS” value in series [2] amounted to 2.7 mM⁻¹ s⁻¹. The “r1 in human blood plasma” value in series [3] worked out at 5.8 mM⁻¹ s⁻¹.

In the case of “Na[Mn(PyC3A-4-methoxy-3.5-dimethyl) [Compound 13]”, the “r1 in PBS” value in series [2] came to 2.5 mM⁻¹ s⁻¹. Moreover, the “r1 in human blood plasma” value in series [3] was 3.5 mM⁻¹ s⁻¹.

For Na[Mn(PyC3A-5-hydrazide)] [Compound 25], in series [2], the “r1 in PBS” value turned out to be 3.4 mM⁻¹ s⁻¹. Besides, the “r1 in human blood plasma” value in series [3] was found to be 5.2 mM⁻¹ s⁻¹.

In the case of “Na[Mn(PyC3A-5-hydroxymethyl)] [Compound 7]”, the “r1 in PBS” value in series [2] is 2.1 mM⁻¹ s⁻¹. In series [3], the “r1 in human blood plasma” value turned out to be 5.7 mM⁻¹ s⁻¹.

Turning to “Na[Mn(PyC3A-5-methyl ester)] [Compound 4]”, the “r1 in PBS” value in series [2] is 3.1 mM⁻¹ s⁻¹. Besides, the “r1 in human blood plasma” value in series [3] was 2.1 mM⁻¹ s⁻¹.
